Patent US9896551B2, “Phosphaphenanthrene-based compound and related preparation method and application” (Elite Electronic Material(Zhongshan) Co., Ltd., priority 2015, dated 2018)

How the values were obtained:
Assay type in all cases: physicochemical
[1] = Test Example 1: solvent compatibility, observed by naked eyes; conditions: for Compatibility in solvent (precipitation, appearance of solution): stand for 12 hours; for Compatibility in solvent (solubility, appearance of solution): the initial state
Excerpt: The phosphaphenanthrene-based compound of the embodiment 2, the conventional phosphaphenanthrene-based compound of the comparison 1 and the conventional phosphaphenanthrene-based compound of the comparison 2 are used as test samples of the test example 1. The test samples are respectively dissolved in toluene, methyl ethyl ketone, and acetone, so as to give a test to the compatibilities of the test samples in these solvents.

[2] = Dissolution of the phosphaphenanthrene-based compound in different solvents; parameters: key: 1: “easily soluble”, which means the solute is dissolved with stirring at room temperature and the solution is clear; “soluble”, which means the solute is dissolved with stirring when being heated up to […] and the solution is clear; 3: “insoluble”, which means the solute is not dissolve even being heated and stirred; conditions: Methyl ethyl ketone; about 5 grams in about 30 ml
Procedure: (§1) In addition, about 5 grams per serving of the phosphaphenanthrene-based compound are weighed and added to about 30 ml of solvents respectively. Stir with or without heating the solution to dissolve the solute. Observe the dissolution of the phosphaphenanthrene-based compound in different solvents, and the results are shown in Table 1, wherein the numeral “1” represents “easily soluble”, which means the solute is dissolved with stirring at room temperature and the solution is clear; the numeral “2” represents “soluble”, which means the solute is dissolved with stirring when being heated up to 120° C. and the solution is clear; the numeral “3” represents “insoluble”, which means the solute is not dissolve even being heated and stirred.
In addition, about 5 grams per serving of the phosphaphenanthrene-based compound (as shown in formula (XVI)) are weighed and added to about 30 ml of solvents respectively. Stir with or without heating to dissolve the solute. […]

[3] = as above; parameters: key: 1: “easily soluble”, which means the solute is dissolved with stirring at room temperature and the solution is clear; “soluble”, which means the solute is dissolved with stirring when being heated up to 120° C. and the solution is clear; 3: “insoluble”, which means the solute is not dissolve even being heated and stirred; conditions: about 5 grams in about 30 ml
Procedure: as §1
In addition, about 5 grams per serving of the phosphaphenanthrene-based compound (as shown in formula (XVI)) are weighed and added to about 30 ml of solvents respectively. Stir with or without heating to dissolve the solute. Observe dissolution of the phosphaphenanthrene-based compound in different solvents, and the results are shown in Table 2, wherein the numeral “1” represents “easily soluble”, which means the solute is dissolved with stirring at room temperature and the solution is clear; the numeral “2” represents “soluble”, which means the solute is dissolved with stirring when being heated up to […] and the solution is clear; the numeral “3” represents “insoluble”, which means the solute is not dissolve even being heated and stirred.

Row | SMILES | Compatibility in solvent (precipitation, appearance of solution) ([1]; Acetone) | Compatibility in solvent (solubility, appearance of solution) ([1]; Acetone) | Compatibility in solvent (precipitation, appearance of solution) ([1]; Methyl ethyl ketone) | Compatibility in solvent (solubility, appearance of solution) ([1]; Methyl ethyl ketone) | Compatibility in solvent (precipitation, appearance of solution) ([1]; Toluene) | Compatibility in solvent (solubility, appearance of solution) ([1]; Toluene) | Dissolution [2] | Dissolution ([3]; Dimethylacetamide) | Dissolution ([3]; Dimethylformamide) | Dissolution ([3]; Toluene) | Dissolution ([3]; 1-Methoxy-2-propyl acetate (PMA)) | Dissolution ([3]; Cyclohexanone (CYC)) | Dissolution ([3]; Dimethylacetamide (DMAC)) | Dissolution ([3]; Methanol (MT)) | Dissolution ([3]; Methyl ethyl ketone (MEK)) | Dissolution ([3]; N,N-Dimethylformamide (DMF)) | Dissolution ([3]; Proprylene glycol monomethyl ether (PM)) | Dissolution ([3]; Toluene (TL))
1 | C=Cc1ccc(COC(c2ccc(C(OCc3ccc(C=C)cc3)P3(=O)Oc4ccccc4-c4ccccc43)cc2)P2(=O)Oc3ccccc3-c3ccccc32)cc1 (stereo not drawn) [Embodiment 2] | No | Soluble, clear | No | Soluble, clear | No | Soluble, clear | 2 | 1 | 1 | 1 | – | – | – | – | – | – | – | –
2 | C=Cc1ccc(COc2ccc(OCc3ccc(C=C)cc3)c(P3(=O)Oc4ccccc4-c4ccccc43)c2)cc1 (stereo not drawn) [Comparison 1] | Precipitated | Soluble, clear | Precipitated | Soluble, clear | No | Soluble, clear | – | – | – | – | – | – | – | – | – | – | – | –
3 | C=Cc1ccc(COc2ccc(-c3ccc(OCc4ccc(C=C)cc4)c(P4(=O)Oc5ccccc5-c5ccccc54)c3)cc2P2(=O)Oc3ccccc3-c3ccccc32)cc1 (stereo not drawn) [Comparison 2] | Precipitated | Soluble, clear | Precipitated | Soluble, clear | No | Soluble, clear | – | – | – | – | – | – | – | – | – | – | – | –
4 | O=P1(C(O)c2ccc(C(O)P3(=O)Oc4ccccc4-c4ccccc43)cc2)Oc2ccccc2-c2ccccc21 (stereo not drawn) [Embodiment 1] | – | – | – | – | – | – | – | – | – | – | 3 | 3 | 3 | 3 | 3 | 2 | 3 | 3
